The assay relates to cardiomyocytes from double knock-in human iPS cell lines (mCherry at TNNI3 locus). The experiment in a line: Experimental Example 1: mCherry (TNNI3 reporter) immunostaining measured by high contents screening. In kind it is cell-based. The arrangement: key to average fluorescent intensity (at 30 μM): —: The symbol in Table 2 means that the average fluorescent intensity cannot be evaluated due to cell decrease. As to conditions: read on 8th day, Alexa 647 anti-mCherry, control well 797. The essentials:
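Double knock-in iPS lines (EmGFP at TNNI1, mCherry at TNNI3) differentiated as embryoid bodies in stirred bioreactor at 37 °C, 5% O2: BMP4/activin A/bFGF, then VEGF, IWP-3, dorsomorphin, SB431542, then VEGF alone. On day 14, dissociated cells seeded at 1.0×10^4 cells/well on iMatrix-511 in AK02-based cardiomyocyte medium.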

For `O=C1c2ccc(N3CCOCC3)cc2CN1c1ccc2[nH]c(-c3ccc(Br)cc3)nc2c1` [Example 8, 2-(2-(4-bromophenyl)-1H-benzimidazol-5-yl)-5-(morpholin-4-yl)isoindolin-1-one], where the note is “test compound 1 μM added on 3rd and 6th culture days”, the “average fluorescent intensity (at 1 μM)” value was 985. For the same compound, the “average fluorescent intensity (at 30 μM)” value (test compound 30 μM added on 3rd and 6th culture days) is “—”.

The record behind these values is patent publication US11401264B2, “Heterocyclic compound” (Orizuru Therapeutics, Inc., priority 2018, dated 2022).
